≈ marks a conversion by molar mass, not a printed value. Where a name gives a salt, the structure may show the parent alone. Read-outs that look alike come from different tables or passages of the source.
Columns and labels:
Assay in all cases: In vitro antibacterial activity, microtitration dilution method (MIC)
Assay type in all cases: cell-based
[1] = tested on: Staphylococcus aureus H 228; conditions: H228, read-out: Minimal Inhibitory Concentration MIC
Text: The compounds of the invention display antibacterial activity when tested by the microtitration dilution method as described in Heifetz, et al, Antimicr. Agents & Chemoth., 6, 124 (1974), which is incorporated herein by reference.
By use of the above reference method, the followed minimum inhibitory concentration value (MICs in μg/ml) shown in the table were obtained for representative compounds of the invention.

[2] = tested on: Streptococcus pneumoniae SV-1
Text: (§1) Agents & Chemoth., 6, 124 (1974), which is incorporated herein by reference.

[3] = tested on: Klebsiella pneumoniae MGH-2
Text: as §1

[4] = tested on: Streptococcus pyogenes C-203
Text: as §1

[5] = tested on: Escherichia coli Vogel; conditions: read-out: Minimal Inhibitory Concentration MIC
Text: as §1

[6] = tested on: Pseudomonas aeruginosa UI-18
Text: as §1

[7] = tested on: Staphylococcus aureus UC-76
Text: as §1

[8] = tested on: Enterobacter cloacae MA 2646
Text: as §1

[9] = tested on: Streptococcus faecalis MGH-2; conditions: Enterococcus faecalis
Text: as §1

[10] = tested on: Proteus rettgeri M 1771; conditions: Providencia rettgeri
Text: as §1

[11] = SV1, Streptococcus pneumoniae SV-1, in vitro, read-out: Minimal Inhibitory Concentration MIC
[12] = MGH2, Klebsiella pneumoniae MGH-2, in vitro, read-out: Minimal Inhibitory Concentration MIC
[13] = C203, Streptococcus pyogenes C-203, in vitro, read-out: Minimal Inhibitory Concentration MIC
[14] = UI18, Pseudomonas aeruginosa UI-18, in vitro, read-out: Minimal Inhibitory Concentration MIC
[15] = UC76, Staphylococcus aureus UC-76, in vitro, read-out: Minimal Inhibitory Concentration MIC
[16] = MA2646, Enterobacter cloacae MA 2646, in vitro, read-out: Minimal Inhibitory Concentration MIC
[17] = MGH2, Streptococcus faecalis MGH-2, in vitro, read-out: Minimal Inhibitory Concentration MIC
[18] = M1771, Proteus rettgeri M 1771, in vitro, read-out: Minimal Inhibitory Concentration MIC

SMILES	MIC [1]	MIC [2, 11]	MIC [3, 12]	MIC [4, 13]	MIC [5]	MIC [6, 14]	MIC [7, 15]	MIC [8, 16]	MIC [9, 17]	MIC [10, 18]	MIC ([2]; Streptococcus pneumoniae, SV1, read-out: Minimal Inhibitory Concentration MIC)	MIC ([4]; Streptococcus pyogenes, C203, read-out: Minimal Inhibitory Concentration MIC)	MIC ([8]; Enterobacter cloacae, MA2646, read-out: Minimal Inhibitory Concentration MIC)	MIC ([10]; M1771, read-out: Minimal Inhibitory Concentration MIC)	MIC ([6]; Pseudomonas aeruginosa, UI18, read-out: Minimal Inhibitory Concentration MIC)	MIC ([9]; MGH2, read-out: Minimal Inhibitory Concentration MIC)	MIC ([3]; Klebsiella pneumoniae, MGH2, read-out: Minimal Inhibitory Concentration MIC)	MIC ([7]; Staphylococcus aureus, UC76, read-out: Minimal Inhibitory Concentration MIC)
CCn1cc(C(=O)O)c(=O)c2cc(F)c(N3CC4CCC3CN4)c(F)c21 (stereo not drawn) [Ex. 2, 7-(2,5-Diazabicyclo[2.2.2]oct-2-yl)-1-ethyl-6,8-difluoro-1,4-dihydro-4-oxo-3-quinolinecarboxylic acid]	0.4 µg/mL (≈ 1.1 µM)	0.8 µg/mL (≈ 2.2 µM)	0.4 µg/mL (≈ 1.1 µM)	0.4 µg/mL (≈ 1.1 µM)	0.1 µg/mL (≈ 0.275 µM)	0.4 µg/mL (≈ 1.1 µM)	≤ 0.1 µg/mL	0.2 µg/mL (≈ 0.55 µM)	1.6 µg/mL (≈ 4.4 µM)	0.8 µg/mL (≈ 2.2 µM)								
O=C(O)c1cn(C2CC2)c2c(F)c(N3CC4CCC3CN4)c(F)cc2c1=O (stereo not drawn) [Ex. 3, 7-(2,5-Diazabicyclo[2.2.2]oct-2-yl)-1-cyclopropyl-6,8-difluoro-1,4-dihydro-4-oxo-3-quinolinecarboxylic acid]	0.4 µg/mL (≈ 1.07 µM)		0.1 µg/mL (≈ 0.266 µM)		0.05 µg/mL (≈ 0.133 µM)	0.8 µg/mL (≈ 2.13 µM)	0.025 µg/mL (≈ 0.0666 µM)		1.6 µg/mL (≈ 4.26 µM)	0.8 µg/mL (≈ 2.13 µM)	1.6 µg/mL (≈ 4.26 µM)	0.8 µg/mL (≈ 2.13 µM)	0.05 µg/mL (≈ 0.133 µM)					
O=C(O)c1cn(C2CC2)c2nc(N3CC4CCC3CN4)c(F)cc2c1=O (stereo not drawn) [Ex. 6a, 7-(2,5-diazabicyclo[2.2.2]oct-2-yl)-1-cyclopropyl-6-fluoro-1,4-dihydro-4-oxo-1,8-naphthyridine-3-carboxylic acid]	0.05 µg/mL (≈ 0.14 µM)	0.4 µg/mL (≈ 1.12 µM)	0.05 µg/mL (≈ 0.14 µM)	0.4 µg/mL (≈ 1.12 µM)	0.1 µg/mL (≈ 0.279 µM)	0.2 µg/mL (≈ 0.558 µM)	0.006 µg/mL (≈ 0.0167 µM)	0.1 µg/mL (≈ 0.279 µM)	0.4 µg/mL (≈ 1.12 µM)	0.4 µg/mL (≈ 1.12 µM)								
Cl.O=C(O)c1cn(C2CC2)c2nc(N3CC4CC3CN4)c(F)cc2c1=O (stereo not drawn) [Ex. 7c, 1-cyclopropyl-7-[2,5-diazabicyclo(2.2.1)hept-2-yl]-6-fluoro-1,4-dihydro-4-oxo-1,8-naphthyridine-3-carboxylic acid, monohydrochloride]	0.8 µg/mL	0.8 µg/mL	0.05 µg/mL	0.2 µg/mL	0.1 µg/mL		0.2 µg/mL	0.05 µg/mL	0.8 µg/mL	0.2 µg/mL								
O=C(O)c1cn(C2CC2)c2c(F)c(N3CC4CC3CN4)c(F)cc2c1=O (stereo not drawn) [Ex. 7d, 1-cyclopropyl-7-[2,5-diazabicyclo(2.2.1)hept-2-yl]-6,8-difluoro-1,4-dihydro-4-oxo-3-quinolinecarboxylic acid]	0.8 µg/mL (≈ 2.21 µM)	1.6 µg/mL (≈ 4.43 µM)	0.1 µg/mL (≈ 0.277 µM)	0.2 µg/mL (≈ 0.553 µM)	0.05 µg/mL (≈ 0.138 µM)	0.2 µg/mL (≈ 0.553 µM)	0.2 µg/mL (≈ 0.553 µM)	0.1 µg/mL (≈ 0.277 µM)	0.8 µg/mL (≈ 2.21 µM)					0.1 µg/mL (≈ 0.277 µM)				
CN1CC2CC1CN2c1nc2c(cc1F)c(=O)c(C(=O)O)cn2C1CC1 (stereo not drawn) [Ex. 10b, 1-cyclopropyl-6-difluoro-1,4-dihydro-7-(5-methyl-2,5-diazabicyclo[2.2.1]hept-2-yl)-4-oxo-1,8-naphthyridine-3-carboxylic acid monohydrochloride]	0.4 µg/mL	0.4 µg/mL	0.05 µg/mL	0.4 µg/mL	0.05 µg/mL		0.1 µg/mL			0.4 µg/mL					0.4 µg/mL	0.8 µg/mL		
O=C(O)c1cn(C2CC2)c2nc(N3CCN4CCC3C4)c(F)cc2c1=O (stereo not drawn) [Ex. 14]	0.8 µg/mL (≈ 2.23 µM)	0.8 µg/mL (≈ 2.23 µM)		0.4 µg/mL (≈ 1.12 µM)	0.05 µg/mL (≈ 0.14 µM)	0.8 µg/mL (≈ 2.23 µM)	0.1 µg/mL (≈ 0.279 µM)	0.1 µg/mL (≈ 0.279 µM)	0.8 µg/mL (≈ 2.23 µM)	0.4 µg/mL (≈ 1.12 µM)							0.1 µg/mL (≈ 0.279 µM)	
CCn1cc(C(=O)O)c(=O)c2cc(F)c(N3CCN4CCC3C4)c(F)c21 (stereo not drawn) [Ex. 16, 7-(1,4-Diazabicyclo[3.2.1]oct-4-yl)-1-ethyl-6,8-difluoro-1,4-dihydro-4-oxo-3-quinolinecarboxylic acid]	0.4 µg/mL (≈ 1.1 µM)	0.8 µg/mL (≈ 2.2 µM)	0.1 µg/mL (≈ 0.275 µM)	0.4 µg/mL (≈ 1.1 µM)		0.4 µg/mL (≈ 1.1 µM)	0.1 µg/mL (≈ 0.275 µM)	0.5 µg/mL (≈ 1.38 µM)	0.8 µg/mL (≈ 2.2 µM)	0.2 µg/mL (≈ 0.55 µM)								
O=C(O)c1cn(C2CC2)c2c(F)c(N3CCN4CCC3C4)c(F)cc2c1=O (stereo not drawn) [Ex. 17, 1-Cyclopropyl-7-(1,4-diazabicyclo[3.2.1]oct-4-yl)-6,8-difluoro-1,4-dihydro-4-oxo-3-quinolinecarboxylic acid]	0.4 µg/mL (≈ 1.07 µM)	0.4 µg/mL (≈ 1.07 µM)	0.05 µg/mL (≈ 0.133 µM)	0.1 µg/mL (≈ 0.266 µM)	0.05 µg/mL (≈ 0.133 µM)	0.4 µg/mL (≈ 1.07 µM)	0.025 µg/mL (≈ 0.0666 µM)	0.025 µg/mL (≈ 0.0666 µM)	0.2 µg/mL (≈ 0.533 µM)	0.2 µg/mL (≈ 0.533 µM)								
CCn1cc(C(=O)O)c(=O)c2cc(F)c(N3[C@@H]4CC[C@H]3C[C@H](N)C4)nc21 [Ex. 20, 7-(3-(Exo-amino)-8-azabicyclo[3.2.1]oct-8-yl]-1-ethyl-6-fluoro-1,4-dihydro-4-oxo-1,8-naphthyridine-3-carboxylic acid, hydrochloride]	0.4 µg/mL	0.4 µg/mL	0.4 µg/mL	0.4 µg/mL	0.4 µg/mL	0.8 µg/mL		0.8 µg/mL	0.8 µg/mL	0.8 µg/mL								0.2 µg/mL

Continued, in another order:

MIC [1]	MIC [2, 11]	MIC [3, 12]	MIC [4, 13]	MIC [5]	MIC [6, 14]	MIC [7, 15]	MIC [8, 16]	MIC [9, 17]	MIC [10, 18]	SMILES	MIC ([2]; Streptococcus pneumoniae, SV1, read-out: Minimal Inhibitory Concentration MIC)	MIC ([4]; Streptococcus pyogenes, C203, read-out: Minimal Inhibitory Concentration MIC)	MIC ([8]; Enterobacter cloacae, MA2646, read-out: Minimal Inhibitory Concentration MIC)	MIC ([10]; M1771, read-out: Minimal Inhibitory Concentration MIC)	MIC ([6]; Pseudomonas aeruginosa, UI18, read-out: Minimal Inhibitory Concentration MIC)	MIC ([9]; MGH2, read-out: Minimal Inhibitory Concentration MIC)	MIC ([3]; Klebsiella pneumoniae, MGH2, read-out: Minimal Inhibitory Concentration MIC)	MIC ([7]; Staphylococcus aureus, UC76, read-out: Minimal Inhibitory Concentration MIC)
0.4 µg/mL	1.6 µg/mL	0.4 µg/mL	1.6 µg/mL	0.4 µg/mL	1.6 µg/mL	0.2 µg/mL	< 0.1 µg/mL	1.6 µg/mL	1.6 µg/mL	CCn1cc(C(=O)O)c(=O)c2cc(F)c(N3CC4CCC3CN4C)nc21.Cl (stereo not drawn) [Ex. 10a, 1-Ethyl-6-fluoro-7-(5-methyl-2,5-diazabicyclo[2.2.2]oct-2-yl)-1,4-dihydro-4-oxo-1,8-naphthyridine-3-carboxylic acid hydrochloride]								
0.1 µg/mL	0.4 µg/mL	0.05 µg/mL	0.4 µg/mL	0.05 µg/mL	0.4 µg/mL	0.025 µg/mL	0.1 µg/mL	0.4 µg/mL	0.2 µg/mL	CN1CC2CC1CN2c1c(F)cc2c(=O)c(C(=O)O)cn(C3CC3)c2c1F.Cl (stereo not drawn) [Ex. 10c, 1-cyclopropyl-6,8-difluoro-1,4-dihydro-7-(5-methyl-2,5-diazabicyclo[2.2.1]hept-2-yl)-4-oxo-3-quinolinecarboxylic acid monohydrochloride]								
